Legend:
[1] = hairless guinea pigs, after microneedle exposure and occlusion; cited from earlier work
[2] = Transepidermal water loss (TEWL) study of microneedle pore viability with COX inhibitor gels under occlusion; assay type: in vivo; conditions: gel re-applied daily under occlusion; 5 day study, trial 2
Description: Two trials were completed with subject 1 and one trial was completed with subject 2. During the initial trial, subject one was tested for 7 days with only Solaraze® Gel. 100 microneedle arrays were placed on each test site and covered with gel. The gel was then protected with an occlusive backing membrane (3M™ Scotchpak™ 9733 2.05 mil polyester film, St. Paul, Minn.) and secured to the test site with Bioclusive* tape (Johnson and Johnson Medical Ltd, Gargrave, Skipton, UK). Along with gel test sites, control sites with and without microneedle insertions were tested minus gel. The control sites were treated in the same manner with gel minus the 100 microneedle insertions. The initial trial lasted for 7 days followed by a 5 day study.
In trial 2, the same procedure was performed on a different test and control sites using each of the following gel formulations: placebo, Solaraze® Gel, 3% diclofenac, 3% celecoxib, 10% ibuprofen, 10% ketoprofen, and controls with and without microneedle treatment. Each day, the protective covering was removed, areas were blotted 3 times with a Kimwipe® (Kimberly-Clark, Roswell, Ga.) to remove gel and trapped moisture and TEWL readings were made with an RG1 Evaporimeter (cyberDERM, Broomall, Pa.). The treated areas had the formula re-applied and immediately covered to prevent closure of the microneedle created pores.

[3] = used in conjunction with microneedles; cited from earlier work

## Cl.Oc1ccc2c3c1O[C@H]1[C@H](O)CC[C@@]4(O)[C@@H](C2)N(CC2CC2)CC[C@]314 [6(3-naltrexol hydrochloride]
[1]
  duration of significant enhancement in microneedle pore viability compared to untreated skin: 48 h

## O=C(O)Cc1ccccc1Nc1c(Cl)cccc1Cl [diclofenac]
[2]
  enhancement in pore viability (TEWL), microneedle-treated areas versus control areas: enhanced viability of microneedle pores

## O=C1CC[C@@]2(O)[C@H]3Cc4ccc(O)c5c4[C@@]2(CCN3CC2CC2)[C@H]1O5 [naltrexone]
[3]
  time for which steady state naltrexone concentrations remained: 48 h
  time until steady state naltrexone concentrations were achieved: two
